From patent publication US20240122848A1, “APPETITE SUPPRESSANT” (priority 2017, published 2024)
Where a name gives a salt, the structure may show the parent alone.

Legend:
[1] = cited from earlier work; for Average weight loss/one year: vs. 3% placebo
[2] = Dissolution / solubility observations of ingredients

| Compound | patients with 5% weight loss/12 weeks [1] | patients with 10% weight loss/12 weeks [1] | Average weight loss/one year [1] | also measured |
| --- | --- | --- | --- | --- |
| C[C@H]1CNCCc2ccc(Cl)cc21 [BELVIQ, Lorcaserin] | – | – | – | weight loss/year vs. placebo ([1]; per year): 3-5% |
| CCCCCCCCCCC[C@@H](C[C@@H]1OC(=O)[C@H]1CCCCCC)OC(=O)[C@H](CC(C)C)NC=O [XENICAL, Orlistat] | – | – | – | weight loss (vs. placebo)/6 months ([1]; 6 months): 5% |
| C[C@H]1[C@H](c2ccccc2)OCCN1C [BONTRIL, Phendimetrazine] | 80 % patients | 50 % patients | 10% | – |
| Glycerol ester of hydrogenated rosin [GEHR] | – | – | – | solubility in aqueous solutions [2]: poorly soluble |
| C[C@@H](Cc1ccccc1)N(C)Cc1ccccc1 [DIDREX, Benzphetamine] | 80 % patients | 50 % patients | 10% | – |
| CCN(CC)C(C)C(=O)c1ccccc1 (stereo not shown) [TENUATE, Diethylpropion] | 80 % patients | 50 % patients | 10% | – |
| CC1(C)O[C@@H]2[C@@H](CO[C@@]3(COS(N)(=O)=O)OC(C)(C)O[C@@H]23)O1 [TOPAMAX, Topiramate] | – | – | – | efficacy (vs. placebo) ([1]; in vivo): Minimal, if any efficacy |
| CNCCC(Oc1ccc(C(F)(F)F)cc1)c1ccccc1 (stereo not shown) [PROZAC, Fluoxetine] | – | – | – | evidence of weight loss ([1]; in vivo): No evidence of weight loss |
| CN1CCCC(n2nc(Cc3ccc(Cl)cc3)c3ccccc3c2=O)CC1 (stereo not shown) [Azelastine hydrochloride, Azelastine Hydrochloride] | – | – | – | time to dissolve in purified water with stirring ([2]; added as second ingredient after Purified Water): approximately 5 minutes |
| CC(C)(N)Cc1ccccc1 [ADIPEX, Phentermine] | 80 % patients | 50 % patients | 10% | – |
| C[C@H]1[C@H](c2ccccc2)OCCN1C.O=C(O)C(O)C(O)C(=O)O [ADIPOST] | 80 % patients | 50 % patients | 10% | – |
| CN[C@H]1CC[C@@H](c2ccc(Cl)c(Cl)c2)c2ccccc21 [ZOLOFT, Sertraline] | – | – | – | evidence of weight loss ([1]; in vivo): No evidence of weight loss |
